Our source for the IC50 values is patent US20250154154A1 (Relay Binney Street, 2nd Floor, priority 2020, published 2025).

One test concerns the target SRC (Homo sapiens, UniProt P12931). Description: SRC Biochemical Assay Protocol (microfluidic mobility shift assay, FLPeptide4 substrate). The method, boiled down:
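Mobility-shift readout of phosphorylated FLPeptide4 (1.5 μM) after 90 min kinase reaction with 50 μM ATP and 0.26 nM SRC in pH 7.4 HEPES buffer. Compounds, tested 0.0017–100 μM, were preincubated 30 min with enzyme and peptide; IC50 from 4-parameter logistic fit versus neutral controls.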

For another test, the system named is RBE cells. Description: Cell Viability Protocol (CellTiterGlo), RBE cells. The test is classed as cell-based. The settings on record: RBE or SNU-1079 cells, 72 or 120 hour, cell line and time not given. As to the method: RBE or SNU-1079 cells were cultured in T-75 or T-175 flasks at 37° C., 5% CO2, 95% relative humidity in RPMI 1640 medium with 10% FBS and 1% Penicillin/Streptomycin (media) and detached with 0.25% trypsin/EDTA at 80-90% confluency. Cells were then seeded in 40 μL media per well in 384-well flat-bottom polystyrene microplates (Corning Cat. No. 3570) at a seeding density of 1200 cells/well and incubated for 24 hours at 37° C. with 5% CO2, 95% relative humidity. On the next day, test compounds were prepared in 10 mM DMSO stock solution and diluted to the indicated concentrations in a 384-well compound source plate. DMSO was employed as a vehicle control. Compounds (40 nL) were transferred to 384-well cell culture plate(s) using the liquid handler Echo550. Plates were incubated at 37° C. with 5% CO2 for 72 hour or 120 hour (as indicated). CellTiterGlo reagent was warmed to 37° C. and added into each well (40 μL per well). Plates were incubated at room temperature for 30 min followed by reading on the EnSpire or EnVision plate reader. Relative viability (% remaining activity) was calculated relative to DMSO control and IC50 values were obtained from dose-response data fitted to a 4-parameter curve.

Sequence of SRC (P12931 whole entry, species assumed): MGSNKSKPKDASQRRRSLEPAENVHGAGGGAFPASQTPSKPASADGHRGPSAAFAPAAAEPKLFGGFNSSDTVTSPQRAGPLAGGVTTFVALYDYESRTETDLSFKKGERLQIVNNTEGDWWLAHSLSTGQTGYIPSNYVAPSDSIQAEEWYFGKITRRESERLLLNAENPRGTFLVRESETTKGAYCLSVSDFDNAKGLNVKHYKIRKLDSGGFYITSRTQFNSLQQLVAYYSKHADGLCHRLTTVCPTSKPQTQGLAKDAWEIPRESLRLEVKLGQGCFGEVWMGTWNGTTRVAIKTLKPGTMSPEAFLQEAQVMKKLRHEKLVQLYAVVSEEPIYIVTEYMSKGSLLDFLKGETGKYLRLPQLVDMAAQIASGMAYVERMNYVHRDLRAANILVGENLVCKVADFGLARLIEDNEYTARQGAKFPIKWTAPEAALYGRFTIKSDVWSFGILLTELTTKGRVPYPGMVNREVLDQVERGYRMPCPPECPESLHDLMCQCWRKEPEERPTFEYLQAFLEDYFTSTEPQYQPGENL

On to `C=CC(=O)NCC#Cc1c(-c2ccc(Oc3ccccc3)cc2)c2c(N)ncnc2n1C` [II-162, N-(3-(4-amino-7-methyl-5-(4-phenoxyphenyl)-7H-pyrrolo[2,3-d]pyrimidin-6-yl)prop-2-yn-1-yl)acrylamide], for which the IC50 on SRC and in the test on RBE cells was 10 to 1000 nM in each case.

For the molecule `C=CC(=O)N1C[C@@H]2[C@@H](C#Cc3c(Br)c4c(N)ncnc4n3C(C)C)[C@@H]2C1` [III-5], the IC50 at SRC and in the test on RBE cells was 1000 to 10000 nM each time.

With `C=CC(=O)N1CCC(C#Cc2c(-c3ccc(Oc4ccccc4)cn3)c3c(N)ncnc3n2C(C)C)CC1` [Example I-55], the half-maximal inhibitory concentration (IC50) at SRC and in the test with RBE cells was 10 to 1000 nM throughout.

In the case of `CC(C)N1CCC(C#Cc2c(-c3ccc(Oc4ccccc4)cc3)c3c(N)ncnc3n2C(C)C)CC1` [II-142, 7-isopropyl-6-((1-isopropylpiperidin-4-yl)ethynyl)-5-(4-phenoxyphenyl)-7H-pyrrolo[2,3-d]pyrimidin-4-amine], the results for the IC50 at SRC and in the test with RBE cells were no more than 10 nM and 10 to 1000 nM, respectively.

`C=CC(=O)N1CCC(C#Cc2c(-c3ccc(Oc4ccccc4)cc3)c3c(N)ncnc3n2C2CCOCC2)CC1` [Example I-41, 1-(4-((4-amino-5-(4-phenoxyphenyl)-7-(tetrahydro-2H-pyran-4-yl)-7H-pyrrolo[2,3-d]pyrimidin-6-yl)ethynyl)piperidin-1-yl)prop-2-en-1-one]: the IC50 on SRC and in the test with RBE cells was 10 to 1000 nM each time.

On to `COc1cc(Oc2cccc(C)n2)ccc1-c1c(C#C[C@@H]2[C@H]3CN(C(=O)/C=C/CN4CCC(F)C4)C[C@@H]23)n(C)c2ncnc(N)c12` (stereo partly drawn) [II-236, (E)-1-((1R,5S,6s)-6-((4-amino-5-(2-methoxy-4-((6-methylpyridin-2-yl)oxy)phenyl)-7-methyl-7H-pyrrolo[2,3-d]pyrimidin-6-yl)ethynyl)-3-azabicyclo[3.1.0]hexan-3-yl)-4-(3-fluoropyrrolidin-1-yl)but-2-en-1-one], for which the IC50 on SRC and in the test on RBE cells was 10 to 1000 nM in each case.

As for `Cn1c(C#C[C@@H]2[C@H]3CN(C(=O)/C=C/CN4CCC(F)C4)C[C@@H]23)c(-c2ccc(Oc3ccccc3)cc2)c2c(N)ncnc21` (stereo partly drawn) [II-225, (E)-1-((1R,5S,6s)-6-((4-amino-7-methyl-5-(4-phenoxyphenyl)-7H-pyrrolo[2,3-d]pyrimidin-6-yl)ethynyl)-3-azabicyclo[3.1.0]hexan-3-yl)-4-(3-fluoropyrrolidin-1-yl)but-2-en-1-one], the IC50 at SRC and in the test on RBE cells was 10 to 1000 nM in each case.

For `C=CC(=O)N1CCC(C#Cc2c(-c3cnc(Oc4ccccc4)cn3)c3c(N)ncnc3n2C(C)C)CC1` [Example I-65], the IC50 on SRC and in the test with RBE cells was 10 to 1000 nM in each case.

As to `C=CC(=O)N1CCC(C#Cc2cn3ncnc(N)c3c2-c2ccc(Oc3ccccc3)cc2)CC1` [Example I-64], the IC50 at SRC lay within 10 to 1000 nM; with RBE cells it was 1000 to 10000 nM.

Consider `COCCN(C)C/C=C/C(=O)N1C[C@@H]2[C@@H](C#Cc3c(-c4ccc(Oc5ccccc5)cc4)c4c(N)ncnc4n3C)[C@@H]2C1` [II-224, (E)-1-((1R,5S,6s)-6-((4-amino-7-methyl-5-(4-phenoxyphenyl)-7H-pyrrolo[2,3-d]pyrimidin-6-yl)ethynyl)-3-azabicyclo[3.1.0]hexan-3-yl)-4-((2-methoxyethyl) (methyl)amino)but-2-en-1-one], for which the 50% inhibitory concentration (IC50) on SRC and in the test on RBE cells was 10 to 1000 nM each time.

With `CC(C)n1c(C#CC2CCC(C(=O)O)CC2)c(-c2ccc(Oc3ccccc3)cc2)c2c(N)ncnc21` (stereo not shown) [II-138, 4-((4-amino-7-isopropyl-5-(4-phenoxyphenyl)-7H-pyrrolo[2,3-d]pyrimidin-6-yl)ethynyl) cyclohexanecarboxylic acid], the results for the IC50 at SRC and with RBE cells were no more than 10 nM and 10 to 1000 nM, respectively.

Turning to `C=CC(=O)N1CCC(N2CC(C#Cc3c(-c4ccc(Oc5ccccn5)cc4OC)c4c(N)ncnc4n3C)C2)C[C@H]1CO` (stereo partly drawn) [II-245, 1-((2S)-4-(3-((4-amino-5-(2-methoxy-4-(pyridin-2-yloxy)phenyl)-7-methyl-7H-pyrrolo[2,3-d]pyrimidin-6-yl)ethynyl)azetidin-1-yl)-2-(hydroxymethyl)piperidin-1-yl)prop-2-en-1-one], the IC50 on SRC and in the test on RBE cells was 10 to 1000 nM in each case.

As to `CC(C)n1c(C#CC2CCN(CCO)CC2)c(-c2ccc(Oc3ccccc3)cc2)c2c(N)ncnc21` [II-147, 2-(4-((4-amino-7-isopropyl-5-(4-phenoxyphenyl)-7H-pyrrolo[2,3-d]pyrimidin-6-yl)ethynyl)piperidin-1-yl)ethanol], the IC50 at SRC was no more than 10 nM; in the test on RBE cells, 10 to 1000 nM.

Take `COc1cc(-c2c(C#C[C@@H]3[C@H]4CN(C(=O)/C=C/CN5CCC(F)C5)C[C@@H]34)n(C)c3ncnc(N)c23)ccc1Oc1ccccn1` (stereo partly shown) [II-47]: the 50% inhibitory concentration (IC50) on SRC and in the test on RBE cells was 10 to 1000 nM in each case.

Turning to `COc1cc(-c2c(C#C[C@@H]3[C@H]4CN(C(=O)/C=C/CN(C)C)C[C@@H]34)n(C)c3ncnc(N)c23)ccc1Oc1ccccn1` [II-233, (E)-1-((1R,5S,6s)-6-((4-amino-5-(3-methoxy-4-(pyridin-2-yloxy)phenyl)-7-methyl-7H-pyrrolo[2,3-d]pyrimidin-6-yl)ethynyl)-3-azabicyclo[3.1.0]hexan-3-yl)-4-(dimethylamino) but-2-en-1-one], the IC50 on SRC and in the test on RBE cells was 10 to 1000 nM throughout.

Take `C=CC(=O)N1CCC(C#Cc2c(-c3ccc(Oc4ccccc4)cc3)c3c(N)ncnc3n2C2CCCNC2)CC1` (stereo not shown) [Example I-60]: the 50% inhibitory concentration (IC50) at SRC and with RBE cells was 10 to 1000 nM in each case.

`C=CC(=O)N1CCC(N2CC(C#Cc3c(-c4ccc(Oc5cccc(C)n5)c(OC)c4)c4c(N)ncnc4n3C)C2)C[C@H]1CO` (stereo partly drawn) [II-242, 1-((2S)-4-(3-((4-amino-5-(3-methoxy-4-(6-methylpyridin-2-yloxy)phenyl)-7-methyl-7H-pyrrolo[2,3-d]pyrimidin-6-yl)ethynyl)azetidin-1-yl)-2-(hydroxymethyl)piperidin-1-yl)prop-2-en-1-one]: the IC50 at SRC and in the test on RBE cells was 10 to 1000 nM in each case.

As to `C=CC(=O)N1CCC(O)(C#Cc2c(-c3ccc(Oc4ccccc4)cc3)c3c(N)ncnc3n2C2CCOC2)CC1` (stereo not shown) [Example I-70], the IC50 at SRC and in the test on RBE cells was no more than 10 nM each time.

Consider `C=CC(=O)N1CCC(O)(C#Cc2c(-c3ccc(Oc4ccccc4)cc3)c3c(N)ncnc3n2C)CC1` [Example I-63], for which the IC50 at SRC and in the test on RBE cells was 10 to 1000 nM in each case.

As for `CC(C)n1c(C#CC2CN(C(=O)CCl)C2)c(-c2ccc(Oc3ccccc3)cc2)c2c(N)ncnc21` [Example I-6], the results for the IC50 at SRC and in the test on RBE cells were no more than 10 nM and 10 to 1000 nM, respectively.

Turning to `CN(C)C/C=C/C(=O)N1CCC(O)(C#Cc2c(-c3ccc(Oc4ccccc4)cc3)c3c(N)ncnc3n2C2CCOC2)CC1` (stereo not shown) [Example I-68], the IC50 on SRC and with RBE cells was 10 to 1000 nM in each case.

`CN(C)C/C=C/C(=O)N1CC(C#Cc2c(-c3ccc(Oc4ccccc4)cc3)c3c(N)ncnc3n2C2CCOC2)C1` (stereo not shown) [Example I-67]: the IC50 on SRC and with RBE cells was 10 to 1000 nM throughout.

On to `CC(C)n1c(C#CC2CCNCC2)c(-c2ccc(Oc3ccccc3)cc2)c2c(N)ncnc21` [II-137, 7-isopropyl-5-(4-phenoxyphenyl)-6-(piperidin-4-ylethynyl)-7H-pyrrolo[2,3-d]pyrimidin-4-amine], for which the IC50 was no more than 10 nM on SRC and 1000 to 10000 nM in the test on RBE cells.

Usually IC50 stands for the concentration needed to halve the response being measured.
